Experimental data published in patent publication US20220053762A1, “HERBICIDAL COMPOSITIONS” (Bayer Aktiengesellschaft, priority 2018, published 2022).

Test system: harmful plant species
Assay: Specific trial examples: binary compositions applied by the post-emergence method, synergistic effect according to Colby (Tables 3.1-3.2)
Type: in vivo
Protocol: When the observed efficacies already exceed the formal sum total of the values of the tests with individual applications, they also exceed the expected value according to Colby, which is calculated using the formula below and is likewise regarded as an indication of synergism (cf. S. R. Colby; in Weeds 15 (1967) p. 20 to 22):
Seeds or rhizome pieces of mono- and dicotyledonous weeds are placed in sandy loam in pots, covered with soil and grown in a greenhouse under good growth conditions (temperature, air humidity, water supply). Three weeks after sowing, the test plants are treated at the three-leaf stage with the compositions according to the invention. The compositions according to the invention formulated as spray powders or as emulsion concentrates are sprayed onto the green plant parts in various dosages with an application rate of 300 to 800 l/ha of water (equivalent).
The sum total of the effects of the individual applications is reported under E^A; Expected values according to Colby are each reported under E^C.
The rating period is reported in days after application (DAT).

## O=C(O)CNCP(=O)(O)O [(B7.5) Glyphosate]
15 g a.i./ha
  Herbicidal action 28 DAT against Digitaria sanguinalis: 10%
50 g a.i./ha
  Herbicidal action 14 DAT against Alopecurus myosuroides: 30%
  Herbicidal action 14 DAT against Centaurea cyanus: 50%
  Herbicidal action 14 DAT against Lamium purpureum L.: 50%
  Herbicidal action 14 DAT against Lolium rigidum: 10%
  Herbicidal action 14 DAT against Lolium rigidum (resistant biotype): 10%
  Herbicidal action 14 DAT against Matricaria inodora: 40%
  Herbicidal action 14 DAT against Poa annua L.: 20%
  Herbicidal action 14 DAT against Viola tricolor: 50%
  Herbicidal action 28 DAT against Alopecurus myosuroides: 20%
  Herbicidal action 28 DAT against Alopecurus myosuroides (sensitive biotype): 0%
  Herbicidal action 28 DAT against Amaranthus palmeri (res.): 10%
  Herbicidal action 28 DAT against Brachiaria platyphylla: 80%
  Herbicidal action 28 DAT against Bromus sterilis: 0%
  Herbicidal action 28 DAT against Centaurea cyanus: 30%
  Herbicidal action 28 DAT against Digitaria sanguinalis: 65%
  Herbicidal action 28 DAT against Echinochloa crus-galli: 20%
  Herbicidal action 28 DAT against Eleusine indica: 40%
  Herbicidal action 28 DAT against Euphorbia heterophylla: 10%
  Herbicidal action 28 DAT against Galium aparine: 0%
  Herbicidal action 28 DAT against Hordeum murinum: 10%
  Herbicidal action 28 DAT against Ipomoea purpurea: 15%
  Herbicidal action 28 DAT against Kochia scoparia: 20%
  Herbicidal action 28 DAT against Lamium purpureum L.: 30%
  Herbicidal action 28 DAT against Matricaria inodora: 20%
  Herbicidal action 28 DAT against Pharbitis purpurea: 40%
  Herbicidal action 28 DAT against Polygonum convulvulus: 0%
  Herbicidal action 28 DAT against Raphanus raphanistrum: 0%
  Herbicidal action 28 DAT against Sorghum halepense: 30%
150 g a.i./ha
  Herbicidal action 14 DAT against Alopecurus myosuroides: 60%
  Herbicidal action 14 DAT against Bromus sterilis: 50%
  Herbicidal action 14 DAT against Lamium purpureum L.: 60%
  Herbicidal action 14 DAT against Lolium rigidum (resistant biotype): 30%
  Herbicidal action 14 DAT against Matricaria inodora: 88%
  Herbicidal action 28 DAT against Alopecurus myosuroides: 30%
  Herbicidal action 28 DAT against Alopecurus myosuroides (resistant biotype): 0%
  Herbicidal action 28 DAT against Alopecurus myosuroides (sensitive biotype): 20%
  Herbicidal action 28 DAT against Amaranthus palmeri (res.): 20%
  Herbicidal action 28 DAT against Avena fatua: 20%
  Herbicidal action 28 DAT against Bromus sterilis: 20%
  Herbicidal action 28 DAT against Centaurea cyanus: 70%
  Herbicidal action 28 DAT against Eleusine indica: 80%
  Herbicidal action 28 DAT against Euphorbia heterophylla: 35%
  Herbicidal action 28 DAT against Ipomoea purpurea: 50%
  Herbicidal action 28 DAT against Lamium purpureum: 60%
  Herbicidal action 28 DAT against Lamium purpureum L.: 50%
  Herbicidal action 28 DAT against Lolium rigidum (sensitive biotype): 0%
  Herbicidal action 28 DAT against Matricaria inodora: 75%
  Herbicidal action 28 DAT against Polygonum convolvulus: 0%
  Herbicidal action 28 DAT against Polygonum convulvulus: 10%
  Herbicidal action 28 DAT against Veronica hederifolia: 85%
  Herbicidal action 28 DAT against Viola tricolor: 20%
450 g a.i./ha
  Herbicidal action 14 DAT against Lolium rigidum (resistant biotype): 40%
  Herbicidal action 14 DAT against Viola tricolor: 60%
  Herbicidal action 28 DAT against Amaranthus palmeri (res.): 35%
  Herbicidal action 28 DAT against Bromus sterilis: 60%
  Herbicidal action 28 DAT against Euphorbia heterophylla: 70%
  Herbicidal action 28 DAT against Galium aparine: 50%
  Herbicidal action 28 DAT against Ipomoea purpurea: 65%
  Herbicidal action 28 DAT against Lamium purpureum: 80%
  Herbicidal action 28 DAT against Lamium purpureum L.: 80%
  Herbicidal action 28 DAT against Lolium rigidum: 40%
  Herbicidal action 28 DAT against Lolium rigidum (sensitive biotype): 50%
  Herbicidal action 28 DAT against Matricaria inodora: 80%
  Herbicidal action 28 DAT against Phalaris minor: 60%
  Herbicidal action 28 DAT against Polygonum convolvulus: 0%
  Herbicidal action 28 DAT against Polygonum convulvulus: 40%
  Herbicidal action 28 DAT against Raphanus raphanistrum: 30%
  Herbicidal action 28 DAT against Stellaria media: 85%
  Herbicidal action 28 DAT against Veronica hederifolia: 85%
post-emergence, single active compound (Glyphosate series), g a.i./ha: r765 50, r767 15
  Herbicidal action 28 DAT [%] against Digitaria sanguinalis: 45%
post-emergence, single active compound (Glyphosate series), g a.i./ha: r775 50, r777 15, r778 1.67
  Herbicidal action 28 DAT [%] against Sorghum halepense: 30%
post-emergence, single active compound (Glyphosate series), g a.i./ha: r786 450, r788 1.67
  Herbicidal action 28 DAT [%] against Setaria viridis: 95%
post-emergence, single active compound (Glyphosate series), g a.i./ha: r796 450, r798 5
  Herbicidal action 28 DAT [%] against Abutilon theophrasti: 85%
